Assay results from patent US7951956B2, “Benzoimidazole compound capable of inhibiting prostaglandin D synthetase” (Taiho Pharmaceuticals Co., Ltd., priority 2005, dated 2011).
pIC50: −log10 of the molar value.

biological target: human hematopoietic synthase (Homo sapiens, UniProt O60760); experiment: Hematopoietic synthase inhibitory activity (Experiment 1); assay type: biochemical; settings: [14C] prostaglandin H2 10 μM, preincubated at 25° C. for 5 minutes, 1 minute reaction; read-out: Concentration of Pharmaceutical Compound Required to Inhibit 50% of Hematopoietic Synthase
Procedure: Experiment 1 was carried out according to the method of Urade, Y. et al. (J. Biol. Chem. 262, 3820-3825, (1987)). More specifically, the reaction mixture (49 μL); 100 mM Tris-HCl (pH 8.0), 1 mM reduced glutathione, 0.1 mg/mL γ-globulin, and human hematopoietic synthase (quantum sufficient), and a test compound (final concentration: 0.01-100 μM) were preincubated at 25° C. for 5 minutes. In place of the test compound, a DMSO solution (final concentration: 1%) was used in the solvent control group (Control Group). Subsequently, 1 μL of [^14C] prostaglandin H2 (final concentration: 10 μM) was added to start the reaction. One minute after the start of the reaction, 250 μL of a reaction stopper solution (diethylether/methanol/1M citric acid (30/4/1) cooled to −20° C. was added to stop the reaction.
Thereafter, 50 μL of the upper layer portion (organic solvent phase) was applied to a TLC plate and developed at −20° C. for 45 minutes (developer: diethylether/methanol/acetic acid (capacity ratio=90/2/1)). After drying the plate, the plate was exposed to an imaging plate for 1 to 24 hours, and the radioactivity corresponding to prostaglandin D2 was analyzed using an image analyzer (product of FUJIFILM Corporation). The area (%) occupied by the prostaglandin D2 band per lane was calculated, and the concentration of the test compound required to inhibit 50% of the hematopoietic synthase (IC50 value) was calculated by comparison with the Control group in each experiment.

human hematopoietic synthase, sequence (O60760 whole entry): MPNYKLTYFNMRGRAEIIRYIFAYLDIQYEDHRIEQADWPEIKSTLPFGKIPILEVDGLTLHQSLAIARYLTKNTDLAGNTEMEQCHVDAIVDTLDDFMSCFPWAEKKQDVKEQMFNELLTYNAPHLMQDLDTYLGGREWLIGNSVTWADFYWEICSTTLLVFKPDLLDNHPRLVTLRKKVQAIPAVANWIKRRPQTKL

CCOC(=O)c1[nH]c(C)c(-c2nc3cc(Sc4ccncc4)c(Oc4ccccc4)cc3[nH]2)c1C [Comparative Example 1, 4-(5-(4-Pyridylsulfenyl)-6-phenoxybenzimidazole-2-yl)-3,5-dimethylpyrrole-2-carboxylic acid ethyl ester, reference compound] was tested. Which pIC50 did it give?
Its pIC50 is < 4.52.

With Cc1[nH]c(C(=O)N(C)C)c(C)c1-c1nc2cc(Sc3ccncc3)c(Oc3ccccc3)cc2[nH]1 [Comparative Example 2, (N,N-Dimethyl)-4-(5-(4-pyridylsulfenyl)-6-phenoxybenzimidazole-2-yl)-3,5-dimethylpyrrole-2-carboxamide, reference compound] as the compound, how does the pIC50 read?
Its pIC50 is < 4.52.

O=C(c1ccccc1)c1ccc2[nH]c(-c3ccc(P(=O)(O)O)o3)nc2c1 [Comparative Example 3, 5-Benzophenone-2-(2-phosphono-5-furanyl)benzimidazole dihydrate, reference compound] was tested. Which pIC50 did it give?
Its pIC50 is 4.53.

Cc1oc(C(=O)NCc2ccc3c(c2)OCO3)c(C)c1-c1nc2cc(C(=O)c3ccccc3)ccc2[nH]1 [Compound 4, N-(3,4-Methylenedioxyphenyl)methyl-4-(5-benzoylbenzimidazol-2-yl)-3,5-dimethylfuran-2-carboxamide] was tested. Which pIC50 did it give?
The pIC50 was 6.56.

Cc1[nH]c(C(=O)O)c(C)c1-c1nc2cc(C(=O)c3ccccc3)ccc2[nH]1 [Compound 10, 4-(5-Benzoylbenzimidazol-2-yl)-3,5-dimethylpyrrole-2-carboxylic acid] was tested. Which pIC50 did it give?
The pIC50 was 6.36.

Cc1[nH]c(C(=O)N(C)CCN(C)C)c(C)c1-c1nc2cc(C(=O)c3ccccc3)ccc2[nH]1 [Compound 11, N-Methyl-N-(2-dimethylaminoethyl)-4-(5-benzoylbenzimidazol-2-yl)-3,5-dimethylpyrrole-2-carboxamide] was tested. Which pIC50 did it give?
Its pIC50 is 6.57.

With Cc1[nH]c(C(N)=O)c(C)c1-c1nc2cc(C(=O)c3ccccc3)ccc2[nH]1 [Compound 12, 4-(5-Benzoylbenzimidazol-2-yl)-3,5-dimethylpyrrole-2-carboxamide] as the compound, how does the pIC50 read?
The pIC50 was 7.00.

With CONC(=O)c1[nH]c(C)c(-c2nc3cc(C(=O)c4ccccc4)ccc3[nH]2)c1C [Compound 14, N-(Methoxy)-4-(5-benzoylbenzimidazol-2-yl)-3,5-dimethylpyrrole-2-carboxamide] as the compound, how does the pIC50 read?
The pIC50 was 6.45.

With COCCCNC(=O)c1[nH]c(C)c(-c2nc3cc(C(=O)c4ccccc4)ccc3[nH]2)c1C [Compound 16, N-(3-Methoxypropyl)-4-(5-benzoylbenzimidazol-2-yl)-3,5-dimethylpyrrole-2-carboxamide] as the compound, how does the pIC50 read?
Its pIC50 is 5.64.

With Cc1[nH]c(C(=O)NCCCN(C)C)c(C)c1-c1nc2cc(C(=O)c3ccccc3)ccc2[nH]1 [Compound 17, N-(3-Dimethylaminopropyl)-4-(5-benzoylbenzimidazol-2-yl)-3,5-dimethylpyrrole-2-carboxamide] as the compound, how does the pIC50 read?
Its pIC50 is 6.91.

With CC(=O)NCCNC(=O)c1[nH]c(C)c(-c2nc3cc(C(=O)c4ccccc4)ccc3[nH]2)c1C [Compound 18, N-(2-Acetamidoethyl)-4-(5-benzoylbenzimidazol-2-yl)-3,5-dimethylpyrrole-2-carboxamide] as the compound, how does the pIC50 read?
Its pIC50 is 7.10.

CCOC(=O)CCNC(=O)c1[nH]c(C)c(-c2nc3cc(C(=O)c4ccccc4)ccc3[nH]2)c1C [Compound 19, N-(2-Ethoxycarbonylethyl)-4-(5-benzoylbenzimidazol-2-yl)-3,5-dimethylpyrrole-2-carboxamide] was tested. Which pIC50 did it give?
Its pIC50 is 6.06.

How did the pIC50 turn out when COC(=O)CNC(=O)c1[nH]c(C)c(-c2nc3cc(C(=O)c4ccccc4)ccc3[nH]2)c1C [Compound 20, N-(1-Methoxycarbonylmethyl)-4-(5-benzoylbenzimidazol-2-yl)-3,5-dimethylpyrrole-2-carboxamide] was run?
Its pIC50 is 6.06.

How did the pIC50 turn out when Cc1[nH]c(C(=O)NCC(=O)O)c(C)c1-c1nc2cc(C(=O)c3ccccc3)ccc2[nH]1 [Compound 22, N-(1-Carboxymethyl)-4-(5-benzoylbenzimidazol-2-yl)-3,5-dimethylpyrrole-2-carboxamide] was run?
The pIC50 was 6.08.

With Cc1[nH]c(C(=O)NCCN2CCCC2)c(C)c1-c1nc2cc(C(=O)c3ccccc3)ccc2[nH]1 [Compound 23, N-(2-Pyrrolidine-1-yl-ethyl)-4-(5-benzoylbenzimidazol-2-yl)-3,5-dimethylpyrrole-2-carboxamide] as the compound, how does the pIC50 read?
The pIC50 was 6.65.

How did the pIC50 turn out when Cc1[nH]c(C(=O)NCCN2CCCCC2)c(C)c1-c1nc2cc(C(=O)c3ccccc3)ccc2[nH]1 [Compound 24, N-(2-Piperidine-1-yl-ethyl)-4-(5-benzoylbenzimidazol-2-yl)-3,5-dimethylpyrrole-2-carboxamide] was run?
The pIC50 was 6.30.

How did the pIC50 turn out when Cc1[nH]c(C(=O)NCC2CCCCC2)c(C)c1-c1nc2cc(C(=O)c3ccccc3)ccc2[nH]1 [Compound 25, N-(Cyclohexylmethyl)-4-(5-benzoylbenzimidazol-2-yl)-3,5-dimethylpyrrole-2-carboxamide] was run?
Its pIC50 is 6.54.

With Cc1cc(NC(=O)c2[nH]c(C)c(-c3nc4cc(C(=O)c5ccccc5)ccc4[nH]3)c2C)no1 [Compound 26, N-(5-Methylisoxazole-3-yl)-4-(5-benzoylbenzimidazol-2-yl)-3,5-dimethylpyrrole-2-carboxamide] as the compound, how does the pIC50 read?
Its pIC50 is 6.83.

How did the pIC50 turn out when Cc1[nH]c(C(=O)Nc2ccc(C#N)cc2)c(C)c1-c1nc2cc(C(=O)c3ccccc3)ccc2[nH]1 [Compound 27, N-(4-Cyanophenyl)-4-(5-benzoylbenzimidazol-2-yl)-3,5-dimethylpyrrole-2-carboxamide] was run?
The pIC50 was 6.51.

Cc1[nH]c(C(=O)Nc2ccc3[nH]ccc3c2)c(C)c1-c1nc2cc(C(=O)c3ccccc3)ccc2[nH]1 [Compound 28, N-(Indole-5-yl)-4-(5-benzoylbenzimidazol-2-yl)-3,5-dimethylpyrrole-2-carboxamide] was tested. Which pIC50 did it give?
The pIC50 was 7.14.

How did the pIC50 turn out when Cc1[nH]c(C(=O)Nc2ccc3c(c2)OCO3)c(C)c1-c1nc2cc(C(=O)c3ccccc3)ccc2[nH]1 [Compound 29, N-(3,4-Methylenedioxyphenyl-1-yl)-4-(5-benzoylbenzimidazol-2-yl)-3,5-dimethylpyrrole-2-carboxamide] was run?
The pIC50 was 7.28.

Cc1[nH]c(C(=O)Nc2ccc3c(c2)CCO3)c(C)c1-c1nc2cc(C(=O)c3ccccc3)ccc2[nH]1 [Compound 30, N-(2,3-Dihydrobenzofuran-5-yl)-4-(5-benzoylbenzimidazol-2-yl)-3,5-dimethylpyrrole-2-carboxamide] was tested. Which pIC50 did it give?
Its pIC50 is 6.95.

Cc1[nH]c(C(=O)Nc2ccc3ncsc3c2)c(C)c1-c1nc2cc(C(=O)c3ccccc3)ccc2[nH]1 [Compound 31, N-(Benzothiazole-6-yl)-4-(5-benzoylbenzimidazol-2-yl)-3,5-dimethylpyrrole-2-carboxamide] was tested. Which pIC50 did it give?
The pIC50 was 7.05.

With Cc1[nH]c(C(=O)Nc2ccc3c(c2)OCCO3)c(C)c1-c1nc2cc(C(=O)c3ccccc3)ccc2[nH]1 [Compound 32, N-(3,4-Ethylenedioxyphenyl)-4-(5-benzoylbenzimidazol-2-yl)-3,5-dimethylpyrrole-2-carboxamide] as the compound, how does the pIC50 read?
The pIC50 was 6.91.

With Cc1[nH]c(C(=O)NCCc2ccccn2)c(C)c1-c1nc2cc(C(=O)c3ccccc3)ccc2[nH]1 [Compound 34, N-(2-(2-Pyridyl)ethyl)-4-(5-benzoylbenzimidazol-2-yl)-3,5-dimethylpyrrole-2-carboxamide] as the compound, how does the pIC50 read?
The pIC50 was 7.14.

With Cc1[nH]c(C(=O)NCc2ccc(Cl)c(Cl)c2)c(C)c1-c1nc2cc(C(=O)c3ccccc3)ccc2[nH]1 [Compound 35, N-(3,4-Dichlorobenzyl)-4-(5-benzoylbenzimidazol-2-yl)-3,5-dimethylpyrrole-2-carboxamide] as the compound, how does the pIC50 read?
Its pIC50 is 6.13.

COc1ccc(CNC(=O)c2[nH]c(C)c(-c3nc4cc(C(=O)c5ccccc5)ccc4[nH]3)c2C)cc1OC [Compound 36, N-(3,4-Dimethoxybenzyl)-4-(5-benzoylbenzimidazol-2-yl)-3,5-dimethylpyrrole-2-carboxamide] was tested. Which pIC50 did it give?
Its pIC50 is 6.71.

Cc1[nH]c(C(=O)NCc2ccc3c(c2)OCO3)c(C)c1-c1nc2cc(C(=O)c3ccccc3)ccc2[nH]1 [Compound 37, N-(3,4-Methylenedioxyphenylmethyl)-4-(5-benzoylbenzimidazol-2-yl)-3,5-dimethylpyrrole-2-carboxamide] was tested. Which pIC50 did it give?
Its pIC50 is 6.67.

Cc1[nH]c(C(=O)NCC2=NNC(=O)CC2)c(C)c1-c1nc2cc(C(=O)c3ccccc3)ccc2[nH]1 [Compound 38, N-(2,3,4,5-Tetrahydro-3-oxo-pyridazine-6-yl-methyl)-4-(5-benzoylbenzimidazol-2-yl)-3,5-dimethylpyrrole-2-carboxamide] was tested. Which pIC50 did it give?
The pIC50 was 6.87.

With Cc1[nH]c(C(=O)N2CCCC2)c(C)c1-c1nc2cc(C(=O)c3ccccc3)ccc2[nH]1 [Compound 39, ((4-(5-Benzoylbenzimidazol-2-yl)-3,5-dimethylpyrrol-2-yl)-carbonyl)pyrrolidine] as the compound, how does the pIC50 read?
Its pIC50 is 6.45.

Cc1[nH]c(C(=O)N2CCN(c3ccccc3)CC2)c(C)c1-c1nc2cc(C(=O)c3ccccc3)ccc2[nH]1 [Compound 41, ((4-(5-Benzoylbenzimidazol-2-yl)-3,5-dimethylpyrrol-2-yl)-carbonyl)-4-phenylpiperazine] was tested. Which pIC50 did it give?
Its pIC50 is 5.84.

With Cc1[nH]c(C(=O)N2CCC(O)CC2)c(C)c1-c1nc2cc(C(=O)c3ccccc3)ccc2[nH]1 [Compound 43, ((4-(5-Benzoylbenzimidazol-2-yl)-3,5-dimethylpyrrol-2-yl)-carbonyl)-4-hydroxypiperidine] as the compound, how does the pIC50 read?
The pIC50 was 6.10.
